Assay results as given in patent US10966426B2, “Herbicidal compositions comprising phenylpyrimidines” (BASF SE, priority 2016, dated 2021).
Where two headings read alike, the source gives them in different places.

Legend:
Assay type in all cases: in vivo
[1] = system: Poa annua; experiment: greenhouse post-emergence treatment, POAAN; conditions: Poa annua, 480 h, 20 DAT, POAAN
Procedure, shortened: (§1)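 Post-emergence greenhouse spray on 3–15 cm plants, sown direct or transplanted a few days before treatment. Scored visually on a 0–100 scale after 2 to 4 weeks; expected additive effect computed by Colby: E=X+Y−(X·Y/100).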

[2] = system: Alopecurus myosuroides; experiment: greenhouse post-emergence treatment, ALOMY; conditions: Alopecurus myosuroides, 480 h, 20 DAT, ALOMY
Procedure, shortened: (§2)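 Greenhouse test in humus-containing (~3.0%) loamy sand at species-dependent temperatures of 10-25° C. or 20-35° C.; treatments applied in water. Damage rated visually after 2–4 weeks (0 = none, 100 = complete destruction or no emergence).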

[3] = system: Papaver rhoeas; experiment: greenhouse post-emergence treatment, PAPRH; conditions: Papaver rhoeas, 480 h, 20 DAT, PAPRH
Procedure, shortened: (§3)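 Seeds sown per species in pots of loamy sand; seedlings either grown in place or transplanted days before treatment. Post-emergence spray of water-based liquor at 3–15 cm height. Injury rated 0–100 over 2 to 4 weeks.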

[4] = system: Matricaria chamomilla; experiment: greenhouse post-emergence treatment, MATCH; conditions: Matricaria chamomilla, 480 h, 70 gai/ha (SL 480 g/l), 20 DAT, MATCH, Table X7, read-out: % activity, solo application
Procedure, shortened: as §3

[5] = system: Helianthus annuus; experiment: greenhouse post-emergence treatment, HELAN; conditions: Helianthus annuus, 480 h, 20 DAT, HELAN, dicamba SL 480 g/l solo 70 gai/ha
Experimental: The culture containers used were plastic pots containing loamy sand with approximately 3.0% of humus as substrate. The seeds of the test plants were sown separately for each species.
For the post-emergence treatment, the test plants were grown to a plant height of from 3 to 15 cm, depending on the plant habit, and only then treated with the active compounds which had been suspended or emulsified in water. To this end, the test plants were either sown directly, and grown in the same containers, or they were first grown separately as seedlings and transplanted into the test containers a few days prior to treatment.
Depending on the species, the plants were kept at 10-25° C. and 20-35° C., respectively.
The test period extended over 2 to 4 weeks. During this time, the plants were tended and their response to the individual treatments was evaluated.
Evaluation was carried out using a scale from 0 to 100. 100 means no emergence of the plants, or complete destruction of at least the above-ground parts, and 0 means no damage or normal course of growth. A good herbicidal activity is given at values of at least 70, and very good herbicidal activity is given at values of at least 85.
The respective stated components A and B, and if appropriate, C were formulated as a 10% by weight strength emulsion concentrate and, with addition of the amount of solvent system, introduced into the spray liquor used for applying the active compound. In the examples, the solvent used was water.
In the examples below, using the method of S. R. Colby (1967) “Calculating synergistic and antagonistic responses of herbicide combinations”, Weeds 15, p. 22ff., the value E, which is expected if the activity of the individual active compounds is only additive, was calculated. E=X+Y−(X·Y/100) where X=effect in percent using herbicide A at an application rate a; • Y=effect in percent using herbicide B at application rate b; • E=expected effect (in %) of herbicide A+herbicide B at application rates a+b.

[6] = system: Lolium multiflorum; experiment: greenhouse post-emergence treatment, LOLMU; conditions: Lolium multiflorum, 480 h, 20 DAT, LOLMU
Procedure, shortened: as §2

[7] = system: Setaria viridis; experiment: greenhouse post-emergence treatment, SETVI; conditions: Setaria viridis, 480 h, 35 gai/ha (SL 480 g/l), 20 DAT, SETVI, Table X7, read-out: % activity, solo application
Procedure, shortened: as §2

[8] = system: Galium aparine; experiment: greenhouse post-emergence treatment, GALAP; conditions: Galium aparine, 480 h, 20 DAT, GALAP, dicamba SL 480 g/l solo 70 gai/ha
Procedure, shortened: as §3

[9] = system: Stellaria media; experiment: greenhouse post-emergence treatment, STEME; conditions: Stellaria media, 480 h, 20 DAT, STEME, dicamba SL 480 g/l solo 35 gai/ha
Procedure, shortened: as §1

[10] = system: Echinocloa crus-galli; experiment: greenhouse post-emergence treatment, ECHCG; conditions: Echinochloa crus-galli, 480 h, 20 DAT, ECHCG, dicamba SL 480 g/l solo 35 gai/ha
Procedure, shortened: as §3

[11] = system: Digitaria sanguinalis; experiment: greenhouse post-emergence treatment, DIGSA; conditions: Digitaria sanguinalis, 480 h, 20 DAT, DIGSA
Procedure, shortened: as §2

[12] = system: Bromus sterilis; experiment: greenhouse post-emergence treatment, BROST; conditions: Bromus sterilis, 480 h, 20 DAT, BROST
Procedure, shortened: as §2

[13] = system: Brachiaria decumbens; experiment: greenhouse post-emergence treatment, BRADC; conditions: Urochloa decumbens, 480 h, 20 DAT, BRADC
Procedure, shortened: as §1

[14] = dicamba SL 480 g/l solo 17.5 gai/ha
[15] = dicamba SL 480 g/l solo 35 gai/ha
[16] = dicamba SL 480 g/l solo 70 gai/ha
[17] = dicamba SL 480 g/l solo 140 gai/ha
[18] = 35 gai/ha (SL 480 g/l), Table X7, read-out: % activity, solo application

Compound: COc1c(Cl)ccc(Cl)c1C(=O)O [Dicamba, dicamba]
- inhibition at 17.5 g/ha [1, 14]: 0%
- inhibition at 35 g/ha [1, 15]: 0%
- inhibition at 70 g/ha [1, 16]: 0%
- inhibition at 140 g/ha [1, 17]: 0%
- inhibition at 140 g/ha ([2]; dicamba SL 480 g/l solo 140 gai/ha, read-out: % activity): 0%
- inhibition at 35 g/ha [2, 18]: 0%
- inhibition at 70 g/ha ([2]; 70 gai/ha (SL 480 g/l), Table X7, read-out: % activity, solo application): 0%
- inhibition at 140 g/ha ([2]; 140 gai/ha (SL 480 g/l), Table X7, read-out: % activity, solo application): 0%
- inhibition at 280 g/ha ([2]; 280 gai/ha (SL 480 g/l), Table X7, read-out: % activity, solo application): 5%
- inhibition at 17.5 g/ha [3, 14]: 20%
- inhibition at 35 g/ha [3, 15]: 30%
- inhibition at 70 g/ha [4]: 0%
- inhibition at 70 g/ha [5]: 85%
- inhibition at 17.5 g/ha [6, 14]: 0%
- inhibition at 35 g/ha [6, 15]: 0%
- inhibition at 35 g/ha [7]: 0%
- inhibition at 70 g/ha [8]: 85%
- inhibition at 35 g/ha [9]: 80%
- inhibition at 35 g/ha [10]: 0%
- inhibition at 17.5 g/ha [11, 14]: 0%
- inhibition at 35 g/ha [11, 15]: 0%
- inhibition at 70 g/ha [11, 16]: 0%
- inhibition at 140 g/ha [11, 17]: 30%
- inhibition at 17.5 g/ha [12, 14]: 0%
- inhibition at 35 g/ha [12, 15]: 0%
- inhibition at 70 g/ha [12, 16]: 0%
- inhibition at 140 g/ha [12, 17]: 0%
- inhibition at 17.5 g/ha [13, 14]: 0%
- inhibition at 35 g/ha ([13]; dicamba SL 480 g/l solo 35 gai/ha, read-out: % activity): 0%
- inhibition at 140 g/ha [13, 17]: 30%
- inhibition at 35 g/ha [13, 18]: 0%
